In patent publication EP1622888B1, “BENZO-, NAPHTHO- AND PHENANTHROCHROMENES SUBSTITUTED WITH AN ARYLAMINE GROUP WITH PHOTOCHROMIC PROPERTIES” (Corning Incorporated, priority 2003, dated 2004):

Experiment: Photochromic properties: UV-visible absorption of THF solutions before and after exposure to a UV source at 365 nm
Type: physicochemical
Settings: 5 mg in 50 ml of THF, optical path of 1 cm, after exposure to a UV source at 365 nm
Experimental: The photochromic properties of said compounds (1) to (6) and (C1) to (C5) were evaluated.
Said compounds were dissolved, at the rate of 5 mg in 50 ml of THF, and the UV-visible absorptions (optical path of 1 cm) is then measured before and after exposure to a UV source at 365 nm. The observation of the tints and the intensities developed is done by placing the solutions in the sun or before a solar simulator.

| SMILES | λMAX VIS: λ of the band of the lowest energy in the field of the visible spectrum of the compound after exposure [nm] | λVIS1: λ of the band of highest energy in the field of the visible spectrum of the compound after exposure [nm] |
| --- | --- | --- |
| COc1ccc2c3c(c4c(c2c1)OC(c1ccccc1)(c1ccc(N(C)C)cc1)C=C4)CCc1ccccc1-3 (centres unmarked) [(C3), reference compound] | 584 | 482 |
| COc1ccc2c3c(c4c(c2c1)OC(c1ccccc1)(c1ccc(N(C)C)c(-c2ccccc2)c1)C=C4)CCc1ccccc1-3 (centres unmarked) [(4)] | 562 | 469 |
| COc1ccc(C2(c3ccc(N(C)C)c(C)c3)C=Cc3c4c(c5cc6c(cc5c3O2)OCC6)-c2ccccc2CC4)cc1 (centres unmarked) [(5)] | 563 | 444 |
| COc1ccc(C2(c3ccccc3)C=Cc3c4c(c5ccc(OC)cc5c3O2)-c2ccccc2CC4)cc1 (centres unmarked) [(C4), reference compound] | 548 | 429 |
| COc1ccc2c3c(c4c(c2c1)OC(c1ccccc1)(c1ccc(N(C)C)c(C)c1)C=C4)CCc1ccccc1-3 (centres unmarked) [(3)] | 556 | 435 |
| COc1cc2c3c(c4c(c2cc1OC)CCc1ccccc1-4)OC(c1ccccc1)(c1ccc(N(C)C)cc1)C=C3 (centres unmarked) [(C1), reference compound] | 507 | – |
| COc1cc2c3c(c4c(c2cc1OC)CCc1ccccc1-4)OC(c1ccccc1)(c1ccc(NC(C)=O)cc1)C=C3 (centres unmarked) [(C5), reference compound] | 446 | – |
| COc1cc2c3c(c4c(c2cc1OC)CCc1ccccc1-4)OC(c1ccccc1)(c1ccc(N(C)C)c(-c2ccccc2)c1)C=C3 (centres unmarked) [(2)] | 465 | – |
| COc1ccc(C2(c3ccc(N(C)C)c(Br)c3)C=Cc3c4c(c5cc6c(cc5c3O2)OCC6)-c2ccccc2CC4)cc1 (centres unmarked) [(6)] | 561 | 443 |
| COc1ccc(C2(c3ccccc3)C=Cc3c(c4c(c5cc(OC)c(OC)cc35)CCc3ccccc3-4)O2)cc1 (centres unmarked) [(C2), reference compound] | 441 | – |
| COc1cc2c3c(c4c(c2cc1OC)CCc1ccccc1-4)OC(c1ccccc1)(c1ccc(N(C)C)c(C)c1)C=C3 (centres unmarked) [(1)] | 452 | – |
